# Patent publication US20050233413A1, “Neuroprotective polypeptides and methods of use” (priority 2002, published 2005)
# Where two headings read alike, the source gives them in different places. Where a SMILES comes first, the peptide text is derived from it. Where no end group is shown, it is not given here. [ ]: non-standard residue; d: D form. pS = N[C@@H](COP(=O)(O)O)C(=O)O
# Columns and labels:
# [1] = system: primary cultured neurons treated with 25 μM Aβ1-43; format: cell-based; details: for concentration of full neuroprotection against Aβ1-43: 25 μM Aβ1-43; for Calcein fluorescence, percentage of neurons without treatment: 72 hours, means±S.D.
# Description: (§1) In one assay, transfection with V642I-APP causes cell death in F11 neuronal hybrid cells. In the other, treatment with Aβ peptides causes cell death in primary cultured cortical neurons.
# (§2) The primary culture of mouse cortical neurons was performed in poly-L-lysine-coated 24-well plates or 96-well plates (Sumitomo Bakelite, Akita, Japan), in the absence of serum and the presence of N2 supplement, as described previously. The purity of neurons by this method was >98%. Prepared neurons (for neurons seeded in 96-well plates: 2.5×10^4 or 5×10^4 cells/well, 100 μl culture medium/well; for neurons seeded in 24-well plates: 1.25×10^5 cells/well, 250 μl culture medium/well) were preincubated with or without 10 μM (in case for the experiment with 10 μM HN) synthetic HN for 16 hr, and treated with 25 μM Aβ in the presence or absence of 10 μM HN for 72 hr, respectively. As primary neurons were vulnerable to transient dryness during medium exchange, we treated neurons with 25 μM Aβ as follows. First, a half volume (50 μl for neurons in 96-well plates; 125 μl for neurons in 24-well plates) of old medium was discarded. Then, the same volume (50 μl for neurons in 96-well plates; 125 μl for neurons in 24-well plates) of prewarned fresh medium containing 10 μM HN and 50 μM Aβ (Aβ was directly resolved) was added to the culture. The Aβ peptides used at 25 μM to induce neurotoxicity formed aggregation in the medium during the cell culture at 37° C. for 72 hr. as described. The WST-8 cell viability assay was performed, using Cell Counting Kit-8 (Wako Pure Chemical Industries, Osaka, Japan), as described previously.
# (§3) Calcein assay was performed with Calcein-AM {3′,6′-di-(O-acetyl)-2′,7′-bis [N,N-bis(carboxymethyl)aminomethyl] fluorescein, tetraacetoxymethyl ester; Dojindo}, as described previously. These assays were simultaneously performed in the experiments with neurons seeded in 96-well plates, as follows. Seventy-two hours after Aβ treatment, cells were added with the mixture of 10 μl WST-8 solution and 1 μl of 600 μM Calcein-AM. After 2 hr incubation in a CO2 incubator at 37° C., WST-8 absorbance was measured as OD450. After exchanging the medium to PBS to lower the background, Calcein-specific fluorescence (ex=485 nm, em=535 nm) was observed by fluorescence microscopy or measured by a spectrofluorometer (Wallac1420 ARVOsx Multi Label Counter). Most cell viability data using Calcein assay and WST-8 assay were obtained from neurons seeded at 5×10^4 cells/well in 96-well plates (high-density neurons) and confirmed by both assays with the cells seeded at 2.5×10^4 cells/well (low-density neurons).
# Some experiments for Calcein assay were performed with neurons seeded in 24-well plates. […] In most experiments using primary neurons, four independent experiments were performed and the means? S. D. of the results were discussed.
# [2] = system: Aβ and four FAD genes (V642I-APP, NL-APP, M146L-PS1, and N141I-PS2); format: cell-based; details: for Full protection (minimal concentration that exerted full cytoprotection): Table 5, marked *
# From the text: (§4) F11 cells, the hybrid of a rat embryonic-day-13 primary cultured primary neuron and a mouse neuroblastoma cell, are one of the best models for primary cultured neurons as they carry representative characteristics of primary neurons, such as generation of action potentials without differentiation by NGF [22]. They have been used in various studies of is neuronal functions. Using these cells, the underlying mechanisms for cytotoxicity by V642I-APP have well been analyzed. Cytotoxicity by V642 mutants of APP has also been confirmed in multiple different systems. F11 cells were grown in Ham's F-12 (GibcoBRL, Gaithersburg, Md.) plus 18% fetal bovine serum (FBS; Hyclone, Logan, Utah) and antibiotics, as described previously. F11 cells (7×10^4 cell/well in a 6-well plate cultured in Ham's F-12 plus 18% FBS for 12-16 hr) were transfected with plasmids encoding FAD genes by lipofection [FAD cDNA 2 μg, LipofectAMINE 4 μl, PLUS reagent 8 μl (GibcoBRL)] in the absence of serum for 3 hr, and were incubated with Ham's F-12 plus 18% FBS for 2 hr. Then, culture media were changed to Ham's F-12 plus 10% FBS with or without HN peptides, and cells were cultured for an additional 67 hr. Seventy-two hr after transfection, cell mortality was measured by Trypan blue exclusion assay, performed as follows. Cells were suspended by pipetting gently, and 50 μl of 0.4% (finally 0.08%) Trypan blue solution (Sigma, St Louis, Mo.) was mixed with 200 μl of the cell suspension at room temperature. Stained cells were counted within 3 min after the mixture with Trypan blue solution.
# as §2
# as §3, with “Most cell viability data using Calcein assay and WST-8 assay were obtained from neurons seeded at 5×10^4 cells/well in 96-well plates (high-density neurons) and confirmed by both assays with the cells seeded at 2.5×10^4 cells/well (low-density neurons).” left out
# [3] = system: V642I-APP, NL-APP, M146L-PS1, N141I-PS2 holoprotein expression in F11 cells; test: Immunoblot analysis of transfected FAD gene expression; format: cell-based, rat/mouse hybrid; details: F11 cells treated with peptide
# Description: Immunoblot analysis was performed as described. For the analysis of transfected FAD gene expression, lysates (20 μg/lane) from cells transfected with each FAD gene (V642I-APP, NL-APP, M146L-PS1, N141I-PS2) were submitted to SDS-PAGE and were electrically blotted to a PVDF sheet. After blocking, the sheet was soaked with antibodies [for APP mutants: 5 μg/ml 22C11 (CHEMICON, Temecula, Calif.); for PS1 mutant: 1/2000 of anti-PS1 N-terminus antibody (CHEMICON) for PS2 mutant: 1/500 of anti-PS2 antibody (Cell Signaling Technology, Beverly, Mass.)] and then with HRP-labeled secondary antibodies. The antigenic bands were visualized by ECL (Amersham Pharmacia Biotech, Uppsala, Sweden).
# [4] = system: F11 cells transfected with V642I-APP, NL-APP, M146L-PS1 or N141I-PS2 cDNA; format: cell-based, rat/mouse hybrid
# From the text: as §4
# [5] = system: Aβ and V642I-APP; format: cell-based; details: Table 5, marked **
# From the text: as §4, §2
# as §3, with “Most cell viability data using Calcein assay and WST-8 assay were obtained from neurons seeded at 5×10^4 cells/well in 96-well plates (high-density neurons) and confirmed by both assays with the cells seeded at 2.5×10^4 cells/well (low-density neurons).” left out
# [6] = system: F11 cells transfected with V642I-APP cDNA; test: F11 cell death by V642I-APP transfection (Trypan blue exclusion); format: cell-based; details: 72 hr after transfection
# From the text: as §1, §4
compound,measurement,setting,value
MAPRGFSCLLLLT(D-S)EIDLPVKRRA [D-Ser14 HN],concentration of full neuroprotection against Aβ1-43,[1],1 to 10 nM
same,potency of neuroprotection against Aβ relative to HN,[1]; times as high as / higher than authentic HN,100-1000 times
same,Full protection (minimal concentration that exerted full cytoprotection),[2],˜10 nM
same,"CMV-promoter-driven expression of V642I-APP, NL-APP, M146L-PS1, or N141I-PS2 holoprotein",[3],did not suppress
same,concentration of full suppression of cell death by FAD mutants,[4]; V642I-APP,10 nM
same,cytoprotective action against FAD genes (in words),[4]; V642I-APP,virtually identical to that of HNG
"CC[C@H](C)[C@H](NC(=O)[C@H](CCC(=O)O)NC(=O)[C@@H](CO)NC(=O)[C@@H](NC(=O)[C@H](CC(C)C)NC(=O)[C@H](CC(C)C)NC(=O)[C@H](CC(C)C)NC(=O)[C@H](CC(C)C)NC(=O)[C@H](CS)NC(=O)[C@H](CO)NC(=O)[C@H](C)NC(=O)CNC(=O)[C@H](C)NC(=O)[C@@H]1CCCN1)[C@@H](C)O)C(=O)N[C@@H](CC(=O)O)C(=O)N[C@@H](CC(C)C)C(=O)N1CCC[C@H]1C(=O)O [AGA-(D-Ser14)HN17, PAGASCLLLLT(D-Ser)EIDLP] (H-PAGASCLLLLT[dS]EIDLP-OH; N-terminus and C-terminus assumed)",IC50,[2],0.01 to 0.1 nM
same,action potency compared with another peptide (in words),[2],as potent as AGAD-Ser^14)HN
same,Full protection (minimal concentration that exerted full cytoprotection),[2],˜100 pM
same,"CMV-promoter-driven expression of V642I-APP, NL-APP, M146L-PS1, or N141I-PS2 holoprotein",[3],did not suppress
same,concentration of full cytoprotection against FAD genes,[4]; each of V642I-APP,100 pM
same,IC50,"[4]; each of V642I-APP, read-out: IC50 of suppression of neuronal cell death by FAD genes",~0.01 nM
MAPRGF(D-Ser)CLLLLT(D-Ser)EIDLPVKRRA (MAPRGF[dS]CLLLLT[dS]EIDLPVKRRA) [D-Ser7/14 HN],Full protection (minimal concentration that exerted full cytoprotection),[2],˜10 nM
same,cytoprotective action against FAD genes (in words),[4]; V642I-APP,virtually identical to those of (D-Ser^14)HN
"CC[C@H](C)[C@H](NC(=O)[C@H](CCC(=O)O)NC(=O)[C@@H](CO)NC(=O)[C@@H](NC(=O)[C@H](CC(C)C)NC(=O)[C@H](CC(C)C)NC(=O)[C@H](CC(C)C)NC(=O)[C@H](CC(C)C)NC(=O)[C@H](CS)NC(=O)[C@H](CO)NC(=O)[C@H](C)NC(=O)CNC(=O)[C@H](C)NC(=O)[C@@H]1CCCN1C(=O)[C@H](C)NC(=O)[C@@H](N)CCSC)[C@@H](C)O)C(=O)N[C@@H](CC(=O)O)C(=O)N[C@@H](CC(C)C)C(=O)N1CCC[C@H]1C(=O)N[C@H](C(=O)N[C@@H](CCCCN)C(=O)N[C@@H](CCCNC(=N)N)C(=O)N[C@@H](CCCNC(=N)N)C(=O)N[C@@H](C)C(=O)O)C(C)C [AGA-(D-Ser14)HN, MAPAGASCLLLLT(D-Ser)EIDLPVKRRA] (H-MAPAGASCLLLLT[dS]EIDLPVKRRA-OH; N-terminus and C-terminus assumed)",concentration of full cytoprotection,[2],100 pM
same,Full protection (minimal concentration that exerted full cytoprotection),[2],100 to 300 pM
same,"CMV-promoter-driven expression of V642I-APP, NL-APP, M146L-PS1, or N141I-PS2 holoprotein",[3],not affected
MAPRGF(p-S)CLLLLT(p-S)EIDLPVKRRA (MAPRGF[pS]CLLLLT[pS]EIDLPVKRRA) [P-S7/14 HN],"Calcein fluorescence, percentage of neurons without treatment","[1]; 25 μM Aβ1-43 + 10 pM peptide, Aβ alone 8.9 ± 0.8",9.3 ± 0.4%
same,"Calcein fluorescence, percentage of neurons without treatment",[1]; 25 μM Aβ1-43 + 100 pM peptide,8.8 ± 0.3%
same,"Calcein fluorescence, percentage of neurons without treatment",[1]; 25 μM Aβ1-43 + 1 nM peptide,8.8 ± 0.2%
same,"Calcein fluorescence, percentage of neurons without treatment",[1]; 25 μM Aβ1-43 + 10 nM peptide,8.7 ± 0.3%
same,"Calcein fluorescence, percentage of neurons without treatment",[1]; 25 μM Aβ1-43 + 100 nM peptide,8.6 ± 0.2%
same,"Calcein fluorescence, percentage of neurons without treatment",[1]; 25 μM Aβ1-43 + 1 μM peptide,84.0 ± 5.8 %
same,"Calcein fluorescence, percentage of neurons without treatment",[1]; 25 μM Aβ1-43 + 10 μM peptide,103.3 ± 0.8 %
same,Full protection (minimal concentration that exerted full cytoprotection),[5],˜10 μM
same,% dead cells of total cells,"[6]; V642I-APP + 10 pM peptide, means±S.D., V642I-APP alone 52.9 ± 1.1",54.8 ± 0.5%
same,% dead cells of total cells,[6]; V642I-APP + 100 pM peptide,54.1 ± 1.5%
same,% dead cells of total cells,[6]; V642I-APP + 1 nM peptide,52.9 ± 1.6%
same,% dead cells of total cells,[6]; V642I-APP + 10 nM peptide,53.8 ± 3.1%
same,% dead cells of total cells,[6]; V642I-APP + 100 nM peptide,38.2 ± 1.9 %
same,% dead cells of total cells,[6]; V642I-APP + 1 μM peptide,22.7 ± 5.2 %
same,% dead cells of total cells,[6]; V642I-APP + 10 μM peptide,11.8 ± 1.2 %
EFLIVIKSMAPAGASCLLLLTGEIDLPVKRRA [EF-AGA-HNG],IC50,[1],~0.001 nM
same,concentration of full neuroprotection against Aβ1-43,[1],0.01 nM
same,Full protection (minimal concentration that exerted full cytoprotection),[2],˜10 pM
same,"CMV-promoter-driven expression of V642I-APP, NL-APP, M146L-PS1, or N141I-PS2 holoprotein",[3],little or only marginal alteration
same,concentration of full cytoprotection against FAD genes,[4]; each of V642I-APP,10 pM
